According to patent publication US20070203225A1, “METHOD OF INCREASING ENDOGENOUS ADIPONECTIN PRODUCTION AND LEPTIN PRODUCTION” (priority 2001, published 2007):
“Also recorded” adds a separate entry of the source.

What was measured:
Format in all cases: cell-based
[1] = system: isolated rat adipocytes; assay: Lactate production and proportion of glucose anaerobically metabolized to lactate in isolated cultured rat adipocytes
Description: Cell isolation/preparation: Adipocytes are prepared from epididymal fat pads from male Sprague-Dawley rats weighing 300-600 g. Epididymal fat depots are resected from halothane anesthetized rats under aseptic conditions and adipocytes are isolated by collagenase digestion by the Rodbell method (Rodbell M. Metabolism of isolated fat cells. I. Effects of hormones on glucose metabolism and lipolysis. J Biol Chem. 1964; 239: 375-380), with minor modifications as previously described (Mueller W M, Gregoire F M, Stanhope K L, Mobbs C V, Mizuno T M, Warden C H, Stem J S, Havel P J. Evidence that glucose metabolism regulates leptin secretion from isolated adipocytes. Endocrinology 139: 551-558, 1998; Mueller W M, Stanhope K L, Gregoire F, Evans J L, Havel P J. Effects of metformin and vanadium on leptin secretion from cultured rat adipocytes. Obesity Res. 8: 530-539, 2000; Medina E A, Stanhope K L, Mizuno T M, Mobbs C V, Gregoire F, Hubbard N E, Erickson K L, Havel P J. Effects of tumor necrosis factor alpha on leptin secretion and gene expression: relationship to changes of glucose metabolism in isolated rat adipocytes. Int J Obes Relat Metab Disord. 23: 896-903, 1999.). The isolated adipocytes are then incubated for 30 minutes at 37 C before being plated and cultured on Matrigel-coated plates.
Adipocyte Culture: Adipocytes are maintained in culture anchored to a basement membrane matrix (Matrigel, Becton Dickinson, Franklin Lakes, N.J.) or collagen from Cohesion Technologies, (Palo Alto, Calif.). Although all in vitro systems have inherent advantages and disadvantages, advantages of this system compared with cultures containing free-floating adipocytes are that the matrix simulates their normal basement membrane attachment and that the cells are maintained in close proximity to each other, allowing direct cell to cell contact. Together the cell contact and basement membrane attachment help to maintain differentiation, since adipocytes have a strong tendency to dedifferentiate in long-term (>24 h) culture. In addition, the matrix and the small amount of serum in the media both contain growth factors, which are also likely to help in maintaining cell differentiation. Furthermore, the adipocytes in this system are not exposed to toxic levels of oxygen at the interface of the media and the incubator atmosphere, as opposed to free-floating adipocytes which aggregate at the surface of the media. An advantage of the system over those containing minced adipose tissue is that all of the cells in the culture are equally exposed to the nutrients and the oxygen dissolved in the media. Thus, although clearly different from the in vivo situation, this system provides a more physiological environment than most systems for maintaining adipocytes in long-term culture.
In culturing each suspension, Matrigel is first thawed on ice to a liquid and uniformly applied to the surface of culture dishes (300 μl Matrigel/35 mm well). After the incubation period, 150 μl of the adipocyte suspension (2:1 ratio of packed cells to media) are plated on the Matrigel or collagen matrix. Adipocytes from each suspension are thoroughly mixed with a transfer pipette before plating to insure that a similar number adipocytes with a similar size distribution are added to the control and experimental wells for each suspension. The warmth of the added cells and buffer causes the Matrigel to gel around the adipocytes, or the neutralization of the acidic pH of the collagen solution to 7.0 solidifies the collagen, and both of these techniques effectively anchor the adipocytes to the culture dish. After a 30 minute incubation at 37° C., 2 ml of warm culture medium is added. The cells are maintained in an incubator at 37° C. for 96 hours with 6% CO2. Aliquots of adipocytes from each animal are divided into wells, with the different concentrations of insulin or other agents to be tested. In each plate an appropriate control well contains adipocytes from the same animal. […]

[2] = system: isolated rat adipocytes; assay: Incorporation of glucose carbon into triglyceride in cultured adipocytes
Description: Incorporation of Glucose Carbon into Triglyceride: To measure glucose incorporation into triglyceride, cultures are exposed to media containing 0.01 uCi/ml of ^14C-glucose. After 96 hr, media and extracellular lipid is removed from the well and methanol added. Then scrape the collagen-cell matrix from the well and transfer into a 50 ml glass tube. Rinse the well and scrape again in methanol to assure complete transfer of cells. Total triglycerides will be extracted using the Folch method (Folch, 1957). An aliquot of the lipid extract will be placed into vials containing scintillation fluid then radioactivity will be measured.
The first measurement is used to calculate the amount of glucose incorporated into triglycerides. Another aliquot of the lipid extract is placed into pre-weighed aluminum pans to determine the total amount of triglyceride per well. The remaining lipid is saponified and acidified to separate the glycerol and fatty acids. An aliquot of the lipid extract is placed into vials containing scintillation fluid and counted. This second count represents the ^14C-glucose incorporation into fatty acids. By subtraction, the amount that was incorporated into triglyceride though glycerol is also determined. Glucose incorporation into triglyceride and into the fatty acid portion of the triglyceride are calculated by multiplying disintegration per min by total ug of glucose/well over the total DPM/well.

[3] = system: leptin promoter; assay: Leptin promoter luciferase construct transfected into 3T3-L1 cells
[4] = DTNB 100.0 μM + insulin 0.48 nM vs control (insulin only)
[5] = DTNB 100.0 μM + insulin 0.48 nM, isolated rat adipocytes, 96 h culture
[6] = DTNB 100 μM, NEM 0.1 μM, DCA 2 mM

Compound | Change in Parameter: Glucose to Lactate (%) [1, 4] [%] | Change in Parameter: Lactate Produced (μg) over 96 h [1, 4] [µg] | Glucose to Lactate (%) [1, 5] [%] | Lactate Produced (μg) over 96 h [1, 5] [µg] | effect on glucose not converted to lactate or incorporated into TG (OTHER; glucose flux into oxidation), by subtraction (in words) [1, 6] | effect on proportion of glucose anaerobically metabolized to lactate (in words) [1, 6] | effect on lactate production (in words) ([1]; DTNB 100 μM, NEM 0.1 μM, DCA 0.1 to 5.0 mM) | effect on proportion of glucose incorporated into TG (in words) [2, 6] | effect on proportion of glucose converted to lactate (in words) ([1]; insulin 0.16 to 1.6 nM) | effect on proportion of glucose not converted to lactate or triglyceride (OTHER), by subtraction (in words) ([1]; insulin 0.16 to 1.6 nM) | effect on activity of control plasmid (in words) ([3]; insulin 10 nM, 2-DG 10 mg/dl) | increase of leptin promoter activity ([3]; insulin 0.1 to 10 nM, n=2 each) | effect on leptin promoter activity (in words) ([3]; insulin 0.1 to 10 nM, 2-DG 10 mg/dl on basal and insulin-stimulated (10 nM) activity) | effect on proportional incorporation of glucose into triglyceride (in words) ([2]; insulin 0.16 to 1.6 nM, listed as Insulin)
O=C(O)c1cc(SSc2ccc([N+](=O)[O-])c(C(=O)O)c2)ccc1[N+](=O)[O-] [DTNB, 5,5′-Dithiobis(2-nitrobenzoate)] | −9.5 ± 1.0 | -53 ± 25 | 13.1 ± 1.4 | 179 ± 22 | increased | decreased | without any increase | without affecting |  |  |  |  |  | 
insulin |  |  |  |  |  |  |  |  | decreases | increases | unaffected | 3-6 fold | increases | does not affect; also recorded: does not alter
